In this series the test system is rat liver. To be noted: treated rats, liver samples; selection by visual inspection and ALT measurement. As to the method: Forty-eight polypeptide spectra were prepared from rat liver samples under four toxicological conditions (G=4).
While it was desirable that samples from each group be completely separated from those of other groups, it was especially important that samples from Group 4 (high toxicity) were separated from the others.

Each structure is given as a SMILES string.

As to `ClC(Cl)(Cl)Cl` [Carbon Tetrachloride (CCl4), Carbon Tetrachloride], the Toxicity entry was “Mild”.
Then `S=C=Nc1cccc2ccccc12` [Alpha-naphthyl Isothiocyanate (ANIT), Alpha-naphthyl Isothiocyanate], with “Mild”.

The values are drawn from patent US8010296B2, “Apparatus and method for removing non-discriminatory indices of an indexed dataset” (Drexel University, priority 2002, dated 2011).
